Data from patent EP4603105A1, “PHARMACEUTICAL COMPOSITION CONTAINING CYCLIC COMPOUND HAVING SELECTIVE KRAS INHIBITORY EFFECT AGAINST HRAS AND NRAS” (CHUGAI SEIYAKU KABUSHIKI KAISHA, priority 2022, dated 2024).
Where two headings read alike, the source gives them in different places.

Columns and labels:
[1] = molecular target: GDP-bound KRAS wild-type protein (Homo sapiens, UniProt P01116); assay: Binding to KRAS by surface plasmon resonance (SPR), dissociation constant KD
In short: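 GDP-bound biotin-Avi RAS captured at ~100–300 RU, 30°C, pH 7.4 HBS containing 10 µM GDP, 10 mM MgCl2, 1 mM DTT, 0.01% Tween 20 and 4% DMSO. KD by 1:1 fitting.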

[2] = molecular target: GDP-bound NRAS wild-type protein (Homo sapiens, UniProt P01111); assay: Binding to NRAS by surface plasmon resonance (SPR), KD and KD ratio to KRAS
In short: (§1)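 Biotinylated GDP-bound RAS was captured at about 100–300 RU. Running buffer: HBS pH 7.4, 10 mM MgCl2, 10 µM GDP, 1 mM DTT, 0.01% Tween 20, 4% DMSO.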

HRAS wild-type protein = HRAS wild-type protein (Homo sapiens, UniProt P01112); assay: Binding to HRAS by surface plasmon resonance (SPR), KD and KD ratio to KRAS
In short: as §1

[3] = system: human lung cancer strain NCI-H441; assay: NCI-H441 cell proliferation inhibitory activity (CellTiter-Glo, 4 days); assay type: cell-based; conditions: read-out: NCl-H441 IC50
Protocol: A test compound was dispensed into a U-bottom 384-well plate as 40 nL serially diluted dimethyl sulfoxide solutions using a liquid handler Echo (LABCYTE). […] This cell suspension was dispensed in an amount of 40 µL per well into a plate containing the test compound, and cultured at 37°C in a 5% carbon dioxide gas incubator. Four days later, 20 µL of CellTiter-Glo (registered trademark) (Promega) was added to each well and […] was measured. […]

[4] = ratio of KD for GDP-bound NRAS wild-type protein to KD for KRAS
[5] = ratio of KD for HRAS wild-type protein to KD for KRAS
[6] = Single Cycle Kinetics, 1:1 binding model
[7] = ratio of KD with respect to GDP-bound NRAS wild-type protein to KD with respect to KRAS
[8] = ratio of KD with respect to HRAS wild-type protein to KD with respect to KRAS
[9] = 50% proliferation inhibitory concentration, four days

HRAS wild-type protein, sequence (P01112 whole entry): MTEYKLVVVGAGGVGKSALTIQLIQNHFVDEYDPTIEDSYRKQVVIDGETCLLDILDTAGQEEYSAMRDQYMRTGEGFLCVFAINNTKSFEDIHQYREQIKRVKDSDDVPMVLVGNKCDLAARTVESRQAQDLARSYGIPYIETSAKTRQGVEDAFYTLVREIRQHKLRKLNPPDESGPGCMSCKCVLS
GDP-bound KRAS wild-type protein, sequence (P01116 1-188 isoform P01116-2): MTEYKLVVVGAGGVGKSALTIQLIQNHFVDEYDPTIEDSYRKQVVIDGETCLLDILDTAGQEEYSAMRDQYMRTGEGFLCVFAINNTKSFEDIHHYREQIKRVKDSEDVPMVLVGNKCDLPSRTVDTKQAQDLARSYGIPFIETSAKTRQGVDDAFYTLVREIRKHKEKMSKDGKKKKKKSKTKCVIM
GDP-bound NRAS wild-type protein, sequence (P01111 whole entry): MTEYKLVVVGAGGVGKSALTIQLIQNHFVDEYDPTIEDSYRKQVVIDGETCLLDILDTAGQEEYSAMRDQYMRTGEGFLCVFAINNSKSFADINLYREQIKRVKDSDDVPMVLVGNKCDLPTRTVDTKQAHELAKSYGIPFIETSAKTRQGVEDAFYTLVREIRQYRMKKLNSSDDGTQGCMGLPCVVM

| Kd ([1]; 1:1 binding model) [nM] | IC50 ([3]; NCI-H441 cells, 4 days) [nM] | Kd ([1]; Single Cycle Kinetics) [nM] | Kd [1, 6] [nM] | IC50 [3, 9] [nM] | SMILES | NRAS /KRAS [2, 4] | HRAS /KRAS (HRAS wild-type protein; [5]) | NRAS /KRAS [2, 7] | HRAS /KRAS (HRAS wild-type protein; [8]) |
| --- | --- | --- | --- | --- | --- | --- | --- | --- | --- |
| 0.4 | 61 | – | – | – | CCC(CC)[C@H]1C(=O)N(C)[C@H](C(=O)N(C)C)CC(=O)N(C)[C@@H](COC)C(=O)N[C@@H]([C@@H](C)CC)C(=O)N(C)CC(=O)N(C)[C@H]2C/C=C\CCN(C2=O)[C@@H](Cc2ccc(C(F)F)cc2)C(=O)N(C)CC(=O)N[C@@H](CCc2ccc(Cl)c(Cl)c2)C(=O)N2C[C@H](OC3CCCC3)C[C@H]2C(=O)NC2(CC(C)(C)C2)C(=O)N1C [PP2649] | AA (a compound having 20 or more is denoted as AA) | A (a compound having 10 or more and less than 20 is denoted as A) | – | – |
| 0.74 | 75.1 | – | – | – | CCC[C@H]1C(=O)N[C@@H]([C@@H](C)CC)C(=O)N(C)CC(=O)N(C)[C@H]2C/C=C\CCN(C2=O)[C@@H](Cc2ccc(C)cc2)C(=O)N(C)CC(=O)N[C@@H](CCc2ccc(Cl)c(Cl)c2)C(=O)N2C[C@H](OC(C)C)C[C@H]2C(=O)NC2(CC(C)(C)C2)C(=O)N(C)[C@@H](C(CC)CC)C(=O)N(C)[C@H](C(=O)N(C)C)CC(=O)N1C [PP2537] | AA (a compound having 20 or more is denoted as AA) | A (a compound having 10 or more and less than 20 is denoted as A) | – | – |
| – | 8.6 | 0.14 | – | – | CCO[C@@H]1C[C@H]2C(=O)NC3(CC(C)(C)C3)C(=O)N(C)[C@@H](C3CCCC3)C(=O)N(C)[C@H](C(=O)N(C)C)CC(=O)N(C)[C@@H](CC(C)C)C(=O)N[C@@H]([C@@H](C)CC)C(=O)N(C)CC(=O)N(C)[C@H]3C/C(F)=C\CCN(C3=O)[C@@H](Cc3ccc(C)cc3)C(=O)N(C)CC(=O)N[C@@H](CCc3cc(F)c(C(F)(F)F)c(F)c3)C(=O)N2C1 [PP3513] | B (a compound having 3 or more and less than 10 is denoted as B) | B (a compound having 3 or more and less than 10 is denoted as B) | – | – |
| 0.16 | 2.9 | – | – | – | CCC[C@H]1C(=O)N[C@@H]([C@@H](C)CC)C(=O)N(C2CC2)CC(=O)N(C)[C@H]2C/C=C\CCN(C2=O)[C@@H](Cc2ccc(C(F)(F)F)cc2)C(=O)N(C)CC(=O)N[C@@H](CCc2ccc(C(F)(F)F)c(OC)c2)C(=O)N2C[C@@H](C)C[C@H]2C(=O)N(C)C2(CCC2)C(=O)N(C)[C@@H](C2CCCC2)C(=O)N(C)[C@H](C(=O)N(C)C)CC(=O)N1C [PP2360] | A (a compound having 10 or more and less than 20 is denoted as A) | B (a compound having 3 or more and less than 10 is denoted as B) | – | – |
| – | 34 | 0.5 | – | – | CCC[C@H]1C(=O)N[C@@H]([C@@H](C)CC)C(=O)N2CCCC[C@H]2C(=O)N(C)[C@H]2C/C=C\CCN(C2=O)[C@@H](Cc2ccc(C)cc2)C(=O)N(C)CC(=O)N[C@@H](CCc2ccc(C(F)(F)F)c(OC)c2)C(=O)N2C[C@H](OCC)C[C@H]2C(=O)N(C)C2(CCC2)C(=O)N(C)[C@@H](C2CCCC2)C(=O)N(C)[C@H](C(=O)N(C)C)CC(=O)N1C [PP3273] | A (a compound having 10 or more and less than 20 is denoted as A) | B (a compound having 3 or more and less than 10 is denoted as B) | – | – |
| 0.11 | 6.3 | – | – | – | CCCOC[C@H]1C(=O)N[C@@H]([C@@H](C)CC)C(=O)N(C)CC(=O)N(C)[C@H]2C/C=C\CCN(C2=O)[C@@H](Cc2ccc(C)cc2)C(=O)N(C)CC(=O)N[C@@H](CCc2ccc(C(F)(F)F)c(OC)c2)C(=O)N2C[C@H](OCC)C[C@H]2C(=O)NC2(CC(C)(C)C2)C(=O)N(C)[C@@H](CC(C)(C)C)C(=O)N(C)[C@H](C(=O)N(C)C)CC(=O)N1C [PP2712] | A (a compound having 10 or more and less than 20 is denoted as A) | B (a compound having 3 or more and less than 10 is denoted as B) | – | – |
| – | 12.3 | 0.27 | – | – | CCO[C@@H]1C[C@H]2C(=O)NC3(CCCC3)C(=O)N(C)[C@@H](C3CCCC3)C(=O)N(C)[C@H](C(=O)N(C)C)CC(=O)N(C)[C@@H](CC(C)C)C(=O)N[C@@H]([C@@H](C)CC)C(=O)N(C)CC(=O)N(C)[C@H]3C/C(F)=C\CCN(C3=O)[C@@H](Cc3ccc(C)cc3)C(=O)N(C)CC(=O)N[C@@H](CCc3cc(F)c(C(F)(F)F)c(F)c3)C(=O)N2C1 [PP3511] | B (a compound having 3 or more and less than 10 is denoted as B) | B (a compound having 3 or more and less than 10 is denoted as B) | – | – |
| – | – | – | 0.12 | 27.5 | CC[C@H](C)[C@@H]1NC(=O)[C@H](CC)N(C)C(=O)C[C@@H](C(=O)N(C)C)N(C)C(=O)[C@H](C2CCCC2)N(C)C(=O)C2(CCC2)NC(=O)[C@@H]2CC(F)(F)CN2C(=O)[C@H](CCc2cc(F)c(C(F)(F)F)c(F)c2)NC(=O)CN(C)C(=O)[C@H](CC2CCCCC2)N2CC/C=C\C[C@@H](C2=O)N(C)C(=O)CN(C)C1=O [PP1462] | – | – | A (a compound having 10 or more and less than 20 is denoted as A) | A (a compound having 10 or more and less than 20 is denoted as A) |
| – | 23.3 | 0.6 | – | – | CCCO[C@@H]1C[C@H]2C(=O)NC3(CC(C)(C)C3)C(=O)N(C)[C@@H](C3CCCC3)C(=O)N(C)[C@H](C(=O)N(C)CC)CC(=O)N(C)[C@@H](COCC)C(=O)N[C@@H]([C@@H](C)CC)C(=O)N3C[C@@H](F)C[C@H]3C(=O)N(C)[C@H]3C/C=C\CCN(C3=O)[C@@H](Cc3ccc(C)cc3)C(=O)N(C)CC(=O)N[C@@H](CCc3ccc(C(F)(F)F)c(Cl)c3)C(=O)N2C1 [PP3465] | A (a compound having 10 or more and less than 20 is denoted as A) | A (a compound having 10 or more and less than 20 is denoted as A) | – | – |
| – | 11 | 0.82 | – | – | CCO[C@@H]1C[C@H]2C(=O)OC3(CCC3)C(=O)N(C)[C@@H](C3CCCC3)C(=O)N(C)[C@H](C(=O)N(C)C)CC(=O)N(C)[C@@H]([C@H](C)OC)C(=O)N[C@@H]([C@@H](C)CC)C(=O)N3CCC[C@H]3C(=O)N(C)[C@H]3C/C=C\CCN(C3=O)[C@@H](Cc3ccc(C)cc3)C(=O)N(C)CC(=O)N[C@@H](CCc3ccc(C(F)(F)F)c(OC)c3)C(=O)N2C1 [PP3395] | A (a compound having 10 or more and less than 20 is denoted as A) | B (a compound having 3 or more and less than 10 is denoted as B) | – | – |
| – | 8.4 | 0.39 | – | – | CCC[C@H]1C(=O)N[C@@H]([C@@H](C)CC)C(=O)N(C)CC(=O)N(C)[C@H]2C/C=C\CCN(C2=O)[C@@H](Cc2ccc(C)cc2)C(=O)N(C)CC(=O)N[C@@H](CCc2ccc(C(F)(F)F)c(OC)c2)C(=O)N2CC3(CC3)C[C@H]2C(=O)NC2(CCC2)C(=O)N(C)[C@@H](C(CC)CC)C(=O)N(C)[C@H](C(=O)N(C)C)CC(=O)N1C [PP3422] | AA (a compound having 20 or more is denoted as AA) | A (a compound having 10 or more and less than 20 is denoted as A) | – | – |
| – | – | – | 0.06 | 20 | CC[C@H](C)[C@@H]1NC(=O)[C@H](CC)N(C)C(=O)C[C@@H](C(=O)N(C)C)N(C)C(=O)[C@H](C2CCCC2)N(C)C(=O)C2(CCC2)NC(=O)[C@@H]2C[C@H](C)CN2C(=O)[C@H](CCc2cc(F)c(C(F)(F)F)c(F)c2)NC(=O)CN(C)C(=O)[C@H](Cc2ccc(C(F)(F)F)cc2)N2CC/C=C\C[C@@H](C2=O)N(C)C(=O)CN(C)C1=O [PP1134] | – | – | A (a compound having 10 or more and less than 20 is denoted as A) | B (a compound having 3 or more and less than 10 is denoted as B) |
| – | – | – | 0.17 | 24.4 | CCC[C@H]1C(=O)N[C@@H]([C@@H](C)CC)C(=O)N(C)CC(=O)N(C)[C@H]2C/C=C\CCN(C2=O)[C@@H](Cc2ccc(C(F)(F)F)cc2)C(=O)N(C)CC(=O)N[C@@H](CCc2ccc(C(F)(F)F)c(OC)c2)C(=O)N2C[C@H](OCC)C[C@H]2C(=O)NC2(CCC2)C(=O)N(C)[C@@H](C(CC)CC)C(=O)N(C)[C@H](C(=O)N(C)C)CC(=O)N1C [PP1208] | – | – | AA (a compound having 20 or more is denoted as AA) | A (a compound having 10 or more and less than 20 is denoted as A) |
| – | 13.6 | 0.09 | – | – | CCO[C@@H]1C[C@H]2C(=O)NC3(CC(C)(C)C3)C(=O)N(C)[C@@H](C3CCCC3)C(=O)N(C)[C@H](C(=O)N(C)CC)CC(=O)N(C)[C@@H]([C@@H](C)OC)C(=O)N[C@@H]([C@@H](C)CC)C(=O)N(C)CC(=O)N(C)[C@H]3C/C=C\CCN(C3=O)[C@@H](Cc3ccc(C)cc3)C(=O)N(C)CC(=O)N[C@@H](CCc3ccc(C(F)(F)F)c(OC)c3)C(=O)N2C1 [PP3176] | A (a compound having 10 or more and less than 20 is denoted as A) | A (a compound having 10 or more and less than 20 is denoted as A) | – | – |

| SMILES | Kd ([1]; 1:1 binding model) [nM] | IC50 ([3]; NCI-H441 cells, 4 days) [nM] | Kd ([1]; Single Cycle Kinetics) [nM] | Kd [1, 6] [nM] | IC50 [3, 9] [nM] | NRAS /KRAS [2, 4] | HRAS /KRAS (HRAS wild-type protein; [5]) | NRAS /KRAS [2, 7] | HRAS /KRAS (HRAS wild-type protein; [8]) |
| --- | --- | --- | --- | --- | --- | --- | --- | --- | --- |
| CCO[C@@H]1C[C@H]2C(=O)NC3(CCC3)C(=O)N(C)[C@@H](C3CCCC3)C(=O)N(C)[C@H](C(=O)N(C)C)CC(=O)N(C)[C@@H](CC3CCCC3)C(=O)N[C@@H]([C@@H](C)CC)C(=O)N(C)CC(=O)N(C)[C@H]3C/C=C\CCN(C3=O)[C@@H](Cc3ccc(C(F)(F)F)cc3)C(=O)N(C)CC(=O)N[C@@H](CCc3ccc(C(F)(F)F)c(OC)c3)C(=O)N2C1 [PP1248] | – | – | – | 0.069 | 7.3 | – | – | A (a compound having 10 or more and less than 20 is denoted as A) | A (a compound having 10 or more and less than 20 is denoted as A) |
